SMILES strings stand for the structures.

The nature of data set [1]: Tablet pressing followed by PXRD analysis of the solid form. The format is physicochemical. Particulars: 200 mg tablet with 86 mg imatinib mesylate substance and excipients. As to the method:
XRD diffraction was performed on X-Ray powder diffractometer: Philips X'pert Pro powder diffractometer, Cu-tube, scanning parameters: CuKα radiation, λ=1.5418 Å. Continuous scan at a rate of: 0.02° 2theta/0.3 sec.
Form V, having the main PXRD peaks at 9.9, 11.7, 13.3, 16.6, and 22.1±0.2 degrees two-theta, and all the components presented in the below table were weighed together and mixed to obtain a tablet.
Form X, having the main PXRD peaks at 6.0, 8.6, 11.4, 14.2, and 18.3±0.2 degrees two-theta, and all the components presented in the below table were weighed together and mixed to obtain a tablet.
Amorphous Imatinib mesylate and all the components presented in the below table were weighed together and mixed to obtain a tablet.

Data set [2] can be described thus: Moisture sensitivity / hygroscopicity of the solid phase noted during drying. Particulars: filter cake dried under nitrogen stream. The format is physicochemical. As to the method:
Imatinib base (3 g, 0.0061 mole) was suspended in dry ethanol (60 ml). The suspension was cooled to −40° C. and then an ethanol-solution of methanesulfonic acid (0.591 g in 3.59 ml; 0.0061 mole) was added at once. Exactly after 5 min of stirring at −40° C. the seeding crystal (Form IV, 0.1 g) was put into the suspension. The stirring was maintained for additional 25 minutes in the temperature range from −40° C. to −35° C. Then the suspension was let to stay in freezer at −28° C. for 14 hours. In the course of standing, the major part of crystalline phase was created—important requirement is absence of motion. After standing the suspension was diluted with MTBE (50 ml) and crystalline product was filtered. […] Imatinib mesylate (Form IV) was obtained (3.61 g; yield: 90.1%).
Imatinib base (75 g, 0.152 mole) was placed into double-jacketed glass-reactor and suspended with water-1,3-dioxolane mixture (37.5 ml: 712.5 ml). The content of the reactor was kept (for all the time) under gentle nitrogen stream. The temperature was adjusted at 20° C., undiluted methanesulphonic acid (14.21 g, 0.148 mole) was added (at once or dropwise during a few minutes). The two-phase liquid was stirred cca 50 min at 20° C. […] The drying process was monitored by measuring LOD (loss on drying)—it was finished when LOD reached 11-12%. […]

Data set [3] can be described thus: Particle size of the crystalline form. The format is physicochemical.
Data set [4] is described as follows: Stability of the crystalline form under pressure and under heating. Conditions: solid form.

As for `CS(=O)(=O)O.Cc1ccc(NC(=O)c2ccc(CN3CCN(C)CC3)cc2)cc1Nc1nccc(-c2cccnc2)n1` [Amorphous Imatinib mesylate, 4-(4-methylpiperazin-1-ylmethyl)-N-[4-methyl-3-[(4-pyrinin-3-yl)pyrimidin-2-yloamino]phenyl]benzamide mesylate, reference compound], in data set [1], the “solid form found by PXRD after the tablet was pressed” value (from here on “solid form found by PXRD”) is on record as “retaining the amorphous form”. Regarding `CS(=O)(=O)O.Cc1ccc(NC(=O)c2ccc(CN3CCN(C)CC3)cc2)cc1Nc1nccc(-c2cccnc2)n1` [Form IV, 4-(4-methylpiperazin-1-ylmethyl)-N-[4-methyl-3-[(4-pyrinin-3-yl)pyrimidin-2-yloamino]phenyl]benzamide mesylate], in data set [2], the “hygroscopicity / moisture sensitivity of solid phase” value was “moisture sensitive”. Further, the particle size result in data set [3] was “less than 100 microns”. On to `CS(=O)(=O)O.Cc1ccc(NC(=O)c2ccc(CN3CCN(C)CC3)cc2)cc1Nc1nccc(-c2cccnc2)n1` [Form V, 4-(4-methylpiperazin-1-ylmethyl)-N-[4-methyl-3-[(4-pyrinin-3-yl)pyrimidin-2-yloamino]phenyl]benzamide mesylate], for which, in data set [1], the “solid form found by PXRD” value was “belong to form V”. In data set [4], the stability under pressure result is recorded as “stable under pressure” and the “stable under heating up to a temperature of” value was at most 80 °C. On to `CS(=O)(=O)O.Cc1ccc(NC(=O)c2ccc(CN3CCN(C)CC3)cc2)cc1Nc1nccc(-c2cccnc2)n1` [Form VI, 4-(4-methylpiperazin-1-ylmethyl)-N-[4-methyl-3-[(4-pyrinin-3-yl)pyrimidin-2-yloamino]phenyl]benzamide mesylate], for which, in data set [2], the “hygroscopicity / moisture sensitivity of solid phase” value is on record as “very hydroscopic”. In addition, the particle size entry in data set [3] is “less than 100 microns”. Regarding `CS(=O)(=O)O.Cc1ccc(NC(=O)c2ccc(CN3CCN(C)CC3)cc2)cc1Nc1nccc(-c2cccnc2)n1` [Form VII, 4-(4-methylpiperazin-1-ylmethyl)-N-[4-methyl-3-[(4-pyrinin-3-yl)pyrimidin-2-yloamino]phenyl]benzamide mesylate], the particle size entry in data set [3] is “less than 100 microns”. For `CS(=O)(=O)O.Cc1ccc(NC(=O)c2ccc(CN3CCN(C)CC3)cc2)cc1Nc1nccc(-c2cccnc2)n1` [Form X, 4-(4-methylpiperazin-1-ylmethyl)-N-[4-methyl-3-[(4-pyrinin-3-yl)pyrimidin-2-yloamino]phenyl]benzamide mesylate], the “solid form found by PXRD” value in data set [1] is “belong to form X”. Besides, the particle size entry in data set [3] is recorded as “less than 100 microns”.

Values taken from patent publication US7977348B2, “Polymorphic forms of imatinib mesylate and processes for preparation of novel crystalline forms as well as amorphous and form α” (Sicor Inc., priority 2006, dated 2011).
